Data as given in PMC11178787, “Development of a natural product optimization strategy for inhibitors against MraY, a promising antibacterial target” (Nature Communications, 2024).
Converted amounts (≈) assume the structure as drawn.

Experiments:
Enterococcus faecium 1 = assay: microbe, parasite or virus in culture; design: CLSI broth microdilution MIC in MHB-II; conditions: Enterococcus faecium, 1, 18 h, read-out: MIC
Method: (§1) MICs were determined by a microdilution broth method as recommended by the CLSI with MHB-II. For MICs of stable analogues, a 2-fold dilution of each compound was prepared in DMSO at 100-fold of the final concentration. The strains were inoculated with 5 × 10^5 cfu/mL in 96-well plates (each 100 μL/well), and 1 μL of DMSO solutions of the samples were added (contained less than 1% DMSO). The plates were incubated at 37 °C for 18 h and then MICs were determined. MICs of stable analogues in Table 1 were the highest value in three trials. MICs in Supplementary Table 1 were determined in one trial.

Enterococcus faecalis 23 = test system: T1, Enterococcus faecalis 23; assay: microbe, parasite or virus in culture; design: CLSI broth microdilution MIC in MHB-II; conditions: Enterococcus faecalis, 23, 18 h, read-out: MIC
T1 construct: 23
Method: as §1

Enterococcus faecalis 27 = test system: T2, Enterococcus faecalis 27; assay: microbe, parasite or virus in culture; design: CLSI broth microdilution MIC in MHB-II; conditions: Enterococcus faecalis, 27, 18 h, read-out: MIC
T2 construct: 27
Method: as §1

Enterococcus faecium 5 = assay: microbe, parasite or virus in culture; design: CLSI broth microdilution MIC in MHB-II; conditions: Enterococcus faecium, 5, 18 h, read-out: MIC
Method: as §1

Enterococcus faecium 8 = assay: microbe, parasite or virus in culture; design: CLSI broth microdilution MIC in MHB-II; conditions: Enterococcus faecium, 8, 18 h, read-out: MIC
Method: as §1

Enterococcus faecium 7 = assay: microbe, parasite or virus in culture; design: CLSI broth microdilution MIC in MHB-II; conditions: Enterococcus faecium, 7, 18 h, read-out: MIC
Method: as §1

Enterococcus faecium 10 = test system: T3, Enterococcus faecium 10; assay: microbe, parasite or virus in culture; design: CLSI broth microdilution MIC in MHB-II; conditions: Enterococcus faecium, 10, 18 h, read-out: MIC
T3 construct: 10
Method: as §1

Enterococcus faecalis 28 = test system: T4, Enterococcus faecalis 28; assay: microbe, parasite or virus in culture; design: CLSI broth microdilution MIC in MHB-II; conditions: Enterococcus faecalis, 28, 18 h, read-out: MIC
T4 construct: 28
Method: as §1

Enterococcus faecium 4 = assay: microbe, parasite or virus in culture; design: CLSI broth microdilution MIC in MHB-II; conditions: Enterococcus faecium, 4, 18 h, read-out: MIC
Method: as §1

[1] = test system: T5, Staphylococcus aureus #2071; assay: microbe, parasite or virus in culture; design: CLSI broth microdilution MIC in MHB-II; conditions: Staphylococcus aureus, 18 h, read-out: MIC
T5 construct: #2071
Method: as §1

[2] = test system: T6, Staphylococcus aureus #2932; assay: microbe, parasite or virus in culture; design: CLSI broth microdilution MIC in MHB-II; conditions: Staphylococcus aureus, 18 h, read-out: MIC
T6 construct: #2932
Method: as §1

[3] = test system: T7, Staphylococcus aureus #2934; assay: microbe, parasite or virus in culture; design: CLSI broth microdilution MIC in MHB-II; conditions: Staphylococcus aureus, 18 h, read-out: MIC
T7 construct: #2934
Method: as §1

Enterococcus faecium 11 = test system: T8, Enterococcus faecium 11; assay: microbe, parasite or virus in culture; design: CLSI broth microdilution MIC in MHB-II; conditions: Enterococcus faecium, 11, 18 h, read-out: MIC
T8 construct: 11
Method: as §1

[4] = test system: T9, Staphylococcus aureus #2310; assay: microbe, parasite or virus in culture; design: CLSI broth microdilution MIC in MHB-II; conditions: Staphylococcus aureus, 18 h, read-out: MIC
T9 construct: #2310
Method: as §1

[5] = test system: T10, Staphylococcus aureus #1958; assay: microbe, parasite or virus in culture; design: CLSI broth microdilution MIC in MHB-II; conditions: Staphylococcus aureus, 18 h, read-out: MIC
T10 construct: #1958
Method: as §1

Enterococcus faecium 9 = assay: microbe, parasite or virus in culture; design: CLSI broth microdilution MIC in MHB-II; conditions: Enterococcus faecium, 9, 18 h, read-out: MIC
Method: as §1

Enterococcus faecalis 21 = test system: T11, Enterococcus faecalis 21; assay: microbe, parasite or virus in culture; design: CLSI broth microdilution MIC in MHB-II; conditions: Enterococcus faecalis, 21, 18 h, read-out: MIC
T11 construct: 21
Method: as §1

[6] = test system: T12, Staphylococcus aureus #2334; assay: microbe, parasite or virus in culture; design: CLSI broth microdilution MIC in MHB-II; conditions: Staphylococcus aureus, 18 h, read-out: MIC
T12 construct: #2334
Method: as §1

[7] = test system: T13, Staphylococcus aureus #2931; assay: microbe, parasite or virus in culture; design: CLSI broth microdilution MIC in MHB-II; conditions: Staphylococcus aureus, 18 h, read-out: MIC
T13 construct: #2931
Method: as §1

[8] = test system: T14, Staphylococcus aureus #2933; assay: microbe, parasite or virus in culture; design: CLSI broth microdilution MIC in MHB-II; conditions: Staphylococcus aureus, 18 h, read-out: MIC
T14 construct: #2933
Method: as §1

Enterococcus faecalis 26 = test system: T15, Enterococcus faecalis 26; assay: microbe, parasite or virus in culture; design: CLSI broth microdilution MIC in MHB-II; conditions: Enterococcus faecalis, 26, 18 h, read-out: MIC
T15 construct: 26
Method: as §1

Enterococcus faecium 3 = assay: microbe, parasite or virus in culture; design: CLSI broth microdilution MIC in MHB-II; conditions: Enterococcus faecium, 3, 18 h, read-out: MIC
Method: as §1

Enterococcus faecalis 22 = test system: T16, Enterococcus faecalis 22; assay: microbe, parasite or virus in culture; design: CLSI broth microdilution MIC in MHB-II; conditions: Enterococcus faecalis, 22, 18 h, read-out: MIC
T16 construct: 22
Method: as §1

MraYSA (S. aureus MraY) = MraYSA (S. aureus MraY) (Staphylococcus aureus, UniProt Q2FZ93); assay: fluorescence assay of dansylated lipid I formation; type: biochemical
in vitro = assay: in vitro; design: WST-8 cell viability assay in HepG2 cells; conditions: human, hepg2 cells; read-out: IC50
Method: Cells were regularly passed to maintain exponential growth. HepG2 cells were sowed by 1.0 × 10^4 cells for each well in 96-well plate and cultured at 37 °C under 5% CO2 in air for 24 h. The cells were treated with a solution of test compounds in DMSO at various concentration and incubated at 37 °C under 5% CO2 in air for 24 h. After that, the WST-8 (Dojindo) cell proliferation assay was used. Cell viability was indicated as a percentage of the negative control (cells treated with DMSO only) and that value was fixed at 100%.

MraYSA (S. aureus MraY), sequence (Q2FZ93 whole entry): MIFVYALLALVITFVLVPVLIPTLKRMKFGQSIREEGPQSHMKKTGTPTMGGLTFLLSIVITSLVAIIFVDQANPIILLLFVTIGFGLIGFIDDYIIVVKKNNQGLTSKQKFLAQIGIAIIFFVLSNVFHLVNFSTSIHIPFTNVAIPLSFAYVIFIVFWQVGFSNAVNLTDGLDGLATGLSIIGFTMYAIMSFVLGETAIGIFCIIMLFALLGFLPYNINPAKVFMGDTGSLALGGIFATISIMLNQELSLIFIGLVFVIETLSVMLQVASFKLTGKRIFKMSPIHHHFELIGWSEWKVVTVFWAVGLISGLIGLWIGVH

Compound	MIC (Enterococcus faecium 1)	MIC (Enterococcus faecalis 23)	MIC (Enterococcus faecalis 27)	MIC (Enterococcus faecium 5)	MIC (Enterococcus faecium 8)	MIC (Enterococcus faecium 7)	MIC (Enterococcus faecium 10)	MIC (Enterococcus faecalis 28)	MIC (Enterococcus faecium 4)	MIC [3]	MIC (Enterococcus faecium 11)	MIC [5]	MIC (Enterococcus faecium 9)	MIC (Enterococcus faecalis 21)	MIC [6]	MIC [7]	MIC [8]	MIC (Enterococcus faecalis 26)	MIC (Enterococcus faecium 3)	MIC (Enterococcus faecalis 22)	further results
CC1(C)S[C@@H]2[C@H](NC(=O)[C@H](N)c3ccccc3)C(=O)N2[C@H]1C(=O)O [ampicillin]	> 128 µg/mL	1 µg/mL (≈ 2.86 µM)	1 µg/mL (≈ 2.86 µM)	128 µg/mL (≈ 366 µM)	128 µg/mL (≈ 366 µM)	0.5 µg/mL (≈ 1.43 µM)	> 128 µg/mL	1 µg/mL (≈ 2.86 µM)	128 µg/mL (≈ 366 µM)	16 µg/mL (≈ 45.8 µM)	128 µg/mL (≈ 366 µM)	32 µg/mL (≈ 91.6 µM)	> 128 µg/mL	1 µg/mL (≈ 2.86 µM)	16 µg/mL (≈ 45.8 µM)	32 µg/mL (≈ 91.6 µM)	32 µg/mL (≈ 91.6 µM)	1 µg/mL (≈ 2.86 µM)	> 128 µg/mL	1 µg/mL (≈ 2.86 µM)	MIC [1]: 32 µg/mL (≈ 91.6 µM); MIC [2]: 32 µg/mL (≈ 91.6 µM); MIC [4]: 32 µg/mL (≈ 91.6 µM)
CCCCCCCCCCCCCCCC(=O)N[C@@H](CCCNC(=N)N)C(=O)NCc1ccc(CN[C@H](C(=O)O)[C@H](O[C@@H]2O[C@H](CN)[C@@H](O)[C@H]2O)[C@H]2O[C@@H](n3ccc(=O)[nH]c3=O)[C@H](O)[C@@H]2O)cc1 [compound 3, analogue 3]	1 µg/mL (≈ 1.04 µM)	0.13 µg/mL (≈ 0.135 µM)	0.25 µg/mL (≈ 0.26 µM)	1 µg/mL (≈ 1.04 µM)	0.5 µg/mL (≈ 0.52 µM)	1 µg/mL (≈ 1.04 µM)	1 µg/mL (≈ 1.04 µM)	< 0.06 µg/mL	0.5 µg/mL (≈ 0.52 µM)	1 µg/mL (≈ 1.04 µM)	1 µg/mL (≈ 1.04 µM)	2 µg/mL (≈ 2.08 µM)	0.5 µg/mL (≈ 0.52 µM)	0.5 µg/mL (≈ 0.52 µM)	1 µg/mL (≈ 1.04 µM)	1 µg/mL (≈ 1.04 µM)	1 µg/mL (≈ 1.04 µM)	0.13 µg/mL (≈ 0.135 µM)	1 µg/mL (≈ 1.04 µM)	0.13 µg/mL (≈ 0.135 µM)	IC50 (MraYSA (S. aureus MraY)): 4 nM; CC50 at 24 h (in vitro): 18 µM; MIC [2]: 2 µg/mL (≈ 2.08 µM); MIC [4]: 2 µg/mL (≈ 2.08 µM)
CCCCCCCCCCCCCCCC(=O)N[C@@H](CCCCN)C(=O)Nc1cccc(CN[C@H](C(=O)O)[C@H](O[C@@H]2O[C@H](CN)[C@@H](O)[C@H]2O)[C@H]2O[C@@H](n3ccc(=O)[nH]c3=O)[C@H](O)[C@@H]2O)c1 [compound 6, analogue 6]	1 µg/mL (≈ 1.09 µM)	0.5 µg/mL (≈ 0.543 µM)	0.5 µg/mL (≈ 0.543 µM)	1 µg/mL (≈ 1.09 µM)	0.5 µg/mL (≈ 0.543 µM)	2 µg/mL (≈ 2.17 µM)	1 µg/mL (≈ 1.09 µM)	0.13 µg/mL (≈ 0.141 µM)	0.5 µg/mL (≈ 0.543 µM)	0.5 µg/mL (≈ 0.543 µM)	1 µg/mL (≈ 1.09 µM)	1 µg/mL (≈ 1.09 µM)	1 µg/mL (≈ 1.09 µM)	0.25 µg/mL (≈ 0.272 µM)	1 µg/mL (≈ 1.09 µM)	0.5 µg/mL (≈ 0.543 µM)	0.5 µg/mL (≈ 0.543 µM)	0.25 µg/mL (≈ 0.272 µM)	1 µg/mL (≈ 1.09 µM)	0.5 µg/mL (≈ 0.543 µM)	IC50 (MraYSA (S. aureus MraY)): 3.7 nM; CC50 at 24 h (in vitro): 16 µM; MIC [1]: 64 µg/mL (≈ 69.6 µM)
C[C@H]1COc2c(N3CCN(C)CC3)c(F)cc3c(=O)c(C(=O)O)cn1c23 [levofloxacin]	> 32 µg/mL	1 µg/mL (≈ 2.77 µM)	1 µg/mL (≈ 2.77 µM)	32 µg/mL (≈ 88.6 µM)	> 32 µg/mL	0.5 µg/mL (≈ 1.38 µM)	> 32 µg/mL	1 µg/mL (≈ 2.77 µM)	> 32 µg/mL	> 32 µg/mL	> 32 µg/mL	> 32 µg/mL	> 32 µg/mL	0.5 µg/mL (≈ 1.38 µM)	> 32 µg/mL	16 µg/mL (≈ 44.3 µM)	> 32 µg/mL	0.5 µg/mL (≈ 1.38 µM)	> 32 µg/mL	1 µg/mL (≈ 2.77 µM)	MIC [1]: 0.13 µg/mL (≈ 0.36 µM); MIC [2]: > 32 µg/mL; MIC [4]: > 32 µg/mL
CN[C@H](CC(C)C)C(=O)N[C@H]1C(=O)N[C@@H](CC(N)=O)C(=O)N[C@H]2C(=O)N[C@H]3C(=O)N[C@H](C(=O)N[C@H](C(=O)O)c4cc(O)cc(O)c4-c4cc3ccc4O)[C@H](O)c3ccc(c(Cl)c3)Oc3cc2cc(c3O[C@@H]2O[C@H](CO)[C@@H](O)[C@H](O)[C@H]2O[C@H]2C[C@](C)(N)[C@H](O)[C@H](C)O2)Oc2ccc(cc2Cl)[C@H]1O [vancomycin]	1 µg/mL (≈ 0.69 µM)	1 µg/mL (≈ 0.69 µM)	1 µg/mL (≈ 0.69 µM)	1 µg/mL (≈ 0.69 µM)	1 µg/mL (≈ 0.69 µM)	0.5 µg/mL (≈ 0.345 µM)	1 µg/mL (≈ 0.69 µM)	1 µg/mL (≈ 0.69 µM)	1 µg/mL (≈ 0.69 µM)	1 µg/mL (≈ 0.69 µM)	1 µg/mL (≈ 0.69 µM)	1 µg/mL (≈ 0.69 µM)	1 µg/mL (≈ 0.69 µM)	1 µg/mL (≈ 0.69 µM)	2 µg/mL (≈ 1.38 µM)	1 µg/mL (≈ 0.69 µM)	1 µg/mL (≈ 0.69 µM)	1 µg/mL (≈ 0.69 µM)	1 µg/mL (≈ 0.69 µM)	1 µg/mL (≈ 0.69 µM)	MIC [2]: 2 µg/mL (≈ 1.38 µM); MIC [4]: 2 µg/mL (≈ 1.38 µM)
